Values of other authors in patent publication US20070141140A1, “Semi-solid formulations for immediate release intended for the oral administration of drugs” (PHARMACIA ITALISA S.P.A., priority 2003, published 2007).

Conditions: for weight concentration in the semi-solid matrix above which dissolution velocity drops significantly: polyethylene glycol or Gelucire 44/14 matrix

In the case of `Nc1nc(N)c2nc(-c3ccccc3)c(N)nc2n1` [Triamterene], the active ingredient released (PEG 1500 matrix, 10% by weight Triamterene, 2 or 5% polysorbate 80 (Tween 80), in an hour) is given as “at least 80%” and the “weight concentration in the semi-solid matrix above which dissolution velocity drops significantly” value is given as “exceeding 5%”.

In the case of `CN1C(=O)C(O)N=C(c2ccccc2)c2cc(Cl)ccc21` (stereo not drawn) [temazepam, Temazepam], the “weight concentration in the semi-solid matrix above which dissolution velocity drops significantly” value is listed as over 15%.
